Our source for the relative viability values is the supplement of paper PMC10307832.

Assay in all cases: relative viability (nuclei count vs DMSO), 5 days (fraction); higher = more cells survive
Compound in the assay “Obatoclax + Decitabine”: COC1=CC(c2cc3ccccc3[nH]2)=N/C1=C\c1[nH]c(C)cc1C [Obatoclax] + Nc1ncn([C@H]2C[C@H](O)[C@@H](CO)O2)c(=O)n1 [Decitabine] (partner 2 µM)
Put shortly: (§1)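 Cells from lung cancer lines were seeded into 1536-well plates and, one day later, dosed by pin tool. Treatments were either a single drug or a fixed dose of an anchor drug with five library-drug doses (not always all listed) in √10 steps. After 5 days, nuclei were stained in a one-step fixation (final 0.05% Triton X-100, 1% formaldehyde, 1 ug/ml Hoechst) and counted on 4× images, and relative viability is the treated-to-vehicle nuclei ratio, as the median of duplicate plates.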

Compound in the assay “Bortezomib + AZD7762”: CC(C)C[C@H](NC(=O)[C@H](Cc1ccccc1)NC(=O)c1cnccn1)B(O)O [Bortezomib] + NC(=O)Nc1cc(-c2cccc(F)c2)sc1C(=O)N[C@H]1CCCNC1 [AZD7762] (partner 0.2 µM)
Put shortly: as §1

Compound in assay [1]: CC1=CC(=NN1)NC2=CC(=NC(=N2)/C=C/C3=CC=CC=C3)N4CCN(CC4)C + CC1(C)CCC(c2ccc(Cl)cc2)=C(CN2CCN(c3ccc(C(=O)NS(=O)(=O)c4ccc(N[C@H](CCN5CCOCC5)CSc5ccccc5)c(S(=O)(=O)C(F)(F)F)c4)cc3)CC2)C1 [Navitoclax] (partner 0.5 µM)
The essentials: as §1

Compound in assay [2]: CC1=CC(=NN1)NC2=CC(=NC(=N2)/C=C/C3=CC=CC=C3)N4CCN(CC4)C + COc1cc2c(Oc3ccc(NC(=O)C4(C(=O)Nc5ccc(F)cc5)CC4)cc3F)ccnc2cc1OCCCN1CCOCC1 [Foretinib] (partner 0.25 µM)
The essentials:
as §1

NCI-H2170: the relative viability came to 0.47 in the assay with Obatoclax + Decitabine (first compound 0.01 µM); 0.393 in the assay with Obatoclax + Decitabine (first compound 0.03162 µM); 0.47 in the assay with Obatoclax + Decitabine (first compound 0.1 µM); 0.453 with Obatoclax + Decitabine (first compound 0.3162 µM); 0.441 with Obatoclax + Decitabine (first compound 1 µM); 0.804 with Bortezomib + AZD7762 (first compound 0.0002 µM). The relative viability in the assay with Bortezomib + AZD7762 (first compound 0.000632 µM) is 0.685; with Bortezomib + AZD7762 (first compound 0.002 µM), 0.943; with Bortezomib + AZD7762 (first compound 0.006325 µM), 0.54; in the assay with Bortezomib + AZD7762 (first compound 0.02 µM), 0.113; in assay [1] (first compound 0.08 µM) it was 0.588; in assay [1] (first compound 0.253 µM), 0.574. Besides, the relative viability in assay [1] (first compound 0.8 µM) came to 0.619; in assay [1] (first compound 2.53 µM) it was 0.248; in assay [1] (first compound 8 µM), 0.159; in assay [2] (first compound 0.08 µM), 1.02; in assay [2] (first compound 0.253 µM) it was 0.981; in assay [2] (first compound 0.8 µM), 0.95. For the same cell line, the relative viability in assay [2] (first compound 2.53 µM) was found to be 0.774; in assay [2] (first compound 8 µM), 0.183.
NCI-H2347: the relative viability was found to be 0.607 with Obatoclax + Decitabine (first compound 0.01 µM); 0.561 with Obatoclax + Decitabine (first compound 0.03162 µM); 0.579 with Obatoclax + Decitabine (first compound 0.1 µM); 0.563 in the assay with Obatoclax + Decitabine (first compound 0.3162 µM); 0.653 with Obatoclax + Decitabine (first compound 1 µM); 0.888 with Bortezomib + AZD7762 (first compound 0.0002 µM). For the same cell line, the relative viability in the assay with Bortezomib + AZD7762 (first compound 0.000632 µM) amounted to 0.695; with Bortezomib + AZD7762 (first compound 0.002 µM), 0.73; in the assay with Bortezomib + AZD7762 (first compound 0.006325 µM), 0.553; with Bortezomib + AZD7762 (first compound 0.02 µM), 0.276; in assay [1] (first compound 0.08 µM) it was 0.762; in assay [1] (first compound 0.253 µM) it was 0.871. The relative viability worked out at 0.912 in assay [1] (first compound 0.8 µM); 0.496 in assay [1] (first compound 2.53 µM); 0.361 in assay [1] (first compound 8 µM); 0.554 in assay [2] (first compound 0.08 µM); 1.44 in assay [2] (first compound 0.253 µM); 1.21 in assay [2] (first compound 0.8 µM). The relative viability in assay [2] (first compound 2.53 µM) came out at 0.857; in assay [2] (first compound 8 µM), 0.325.
Consider NCI-H2405, for which the relative viability came out at 0.769 in the assay with Obatoclax + Decitabine (first compound 0.01 µM); 0.717 in the assay with Obatoclax + Decitabine (first compound 0.03162 µM); 0.762 in the assay with Obatoclax + Decitabine (first compound 0.3162 µM); 0.63 with Obatoclax + Decitabine (first compound 1 µM); 0.699 with Bortezomib + AZD7762 (first compound 0.0002 µM); 0.714 with Bortezomib + AZD7762 (first compound 0.000632 µM). Besides, the relative viability came out at 0.919 in the assay with Bortezomib + AZD7762 (first compound 0.002 µM); 0.165 with Bortezomib + AZD7762 (first compound 0.006325 µM); 0.159 with Bortezomib + AZD7762 (first compound 0.02 µM); 0.884 in assay [1] (first compound 0.08 µM); 0.688 in assay [1] (first compound 0.253 µM); 1.13 in assay [1] (first compound 0.8 µM). For the same cell line, the relative viability in assay [1] (first compound 2.53 µM) turned out to be 0.511; in assay [1] (first compound 8 µM) it was 0.0864; in assay [2] (first compound 0.08 µM) it was 1.05; in assay [2] (first compound 0.253 µM) it was 1.07; in assay [2] (first compound 0.8 µM), 1.07; in assay [2] (first compound 2.53 µM) it was 0.878. Also, the relative viability in assay [2] (first compound 8 µM) stood at 0.229.
For the cell line NCI-H3122, the relative viability in the assay with Obatoclax + Decitabine (first compound 0.01 µM) is 0.434; in the assay with Obatoclax + Decitabine (first compound 0.03162 µM), 0.489; with Obatoclax + Decitabine (first compound 0.1 µM) it was 0.39; with Obatoclax + Decitabine (first compound 0.3162 µM) it was 0.435; with Obatoclax + Decitabine (first compound 1 µM), 0.453; in the assay with Bortezomib + AZD7762 (first compound 0.0002 µM) it was 0.976. Further, the relative viability came out at 1.09 with Bortezomib + AZD7762 (first compound 0.000632 µM); 1.03 in the assay with Bortezomib + AZD7762 (first compound 0.002 µM); 0.784 with Bortezomib + AZD7762 (first compound 0.006325 µM); 0.11 in the assay with Bortezomib + AZD7762 (first compound 0.02 µM); 1 in assay [1] (first compound 0.08 µM); 0.996 in assay [1] (first compound 0.253 µM). In addition, the relative viability in assay [1] (first compound 0.8 µM) turned out to be 0.991; in assay [1] (first compound 2.53 µM), 0.918; in assay [1] (first compound 8 µM), 0.896; in assay [2] (first compound 0.08 µM), 0.957; in assay [2] (first compound 0.253 µM), 0.928; in assay [2] (first compound 0.8 µM), 0.965. Also, the relative viability came out at 0.873 in assay [2] (first compound 2.53 µM) and 0.383 in assay [2] (first compound 8 µM).
For the cell line PC-3 [JPC-3], the relative viability in the assay with Obatoclax + Decitabine (first compound 0.01 µM) was found to be 0.826; with Obatoclax + Decitabine (first compound 0.03162 µM) it was 0.799; in the assay with Obatoclax + Decitabine (first compound 0.1 µM) it was 0.776; with Obatoclax + Decitabine (first compound 0.3162 µM) it was 0.732; in the assay with Obatoclax + Decitabine (first compound 1 µM), 0.501; with Bortezomib + AZD7762 (first compound 0.0002 µM), 0.773. Further, the relative viability with Bortezomib + AZD7762 (first compound 0.000632 µM) stood at 0.829; with Bortezomib + AZD7762 (first compound 0.002 µM), 0.531; with Bortezomib + AZD7762 (first compound 0.006325 µM), 0.225; with Bortezomib + AZD7762 (first compound 0.02 µM), 0.199; in assay [1] (first compound 0.08 µM), 0.769; in assay [1] (first compound 0.253 µM) it was 0.81. Moreover, the relative viability in assay [1] (first compound 0.8 µM) stood at 0.762; in assay [1] (first compound 2.53 µM), 0.62; in assay [1] (first compound 8 µM), 0.389; in assay [2] (first compound 0.08 µM), 1.01; in assay [2] (first compound 0.253 µM), 1.1; in assay [2] (first compound 0.8 µM), 1.02. Besides, the results for the relative viability in assay [2] (first compound 2.53 µM) and in assay [2] (first compound 8 µM) were 0.87 and 0.493, respectively.
As to PC-14, the relative viability with Obatoclax + Decitabine (first compound 0.01 µM) came to 0.209; with Obatoclax + Decitabine (first compound 0.03162 µM) it was 0.17; with Obatoclax + Decitabine (first compound 0.1 µM) it was 0.147; with Obatoclax + Decitabine (first compound 0.3162 µM), 0.0898; in the assay with Obatoclax + Decitabine (first compound 1 µM), 0.0842; with Bortezomib + AZD7762 (first compound 0.0002 µM) it was 0.279. For the same cell line, the relative viability with Bortezomib + AZD7762 (first compound 0.000632 µM) stood at 0.336; with Bortezomib + AZD7762 (first compound 0.002 µM), 0.364; with Bortezomib + AZD7762 (first compound 0.006325 µM), 0.123; in the assay with Bortezomib + AZD7762 (first compound 0.02 µM) it was 0.0742; in assay [1] (first compound 0.08 µM), 0.974; in assay [1] (first compound 0.253 µM) it was 1.01. Further, the relative viability in assay [1] (first compound 0.8 µM) was 0.928; in assay [1] (first compound 2.53 µM), 0.324; in assay [1] (first compound 8 µM), 0.0445; in assay [2] (first compound 0.08 µM), 0.974; in assay [2] (first compound 0.253 µM), 1.09; in assay [2] (first compound 0.8 µM), 0.534. Moreover, the relative viability came to 0.869 in assay [2] (first compound 2.53 µM) and 0.398 in assay [2] (first compound 8 µM).
For the cell line RERF-LC-KJ, the relative viability with Obatoclax + Decitabine (first compound 0.01 µM) is 0.693; in the assay with Obatoclax + Decitabine (first compound 0.03162 µM) it was 0.632; in the assay with Obatoclax + Decitabine (first compound 0.1 µM), 0.643; with Obatoclax + Decitabine (first compound 0.3162 µM), 0.613; with Obatoclax + Decitabine (first compound 1 µM), 0.291; with Bortezomib + AZD7762 (first compound 0.0002 µM), 0.819. The relative viability in the assay with Bortezomib + AZD7762 (first compound 0.000632 µM) worked out at 1.12; with Bortezomib + AZD7762 (first compound 0.002 µM), 1.12; with Bortezomib + AZD7762 (first compound 0.006325 µM), 0.966; in the assay with Bortezomib + AZD7762 (first compound 0.02 µM), 0.409; in assay [1] (first compound 0.08 µM) it was 1.05; in assay [1] (first compound 0.253 µM), 1.01. In addition, the relative viability in assay [1] (first compound 0.8 µM) amounted to 0.764; in assay [1] (first compound 2.53 µM), 0.361; in assay [1] (first compound 8 µM), 0.189; in assay [2] (first compound 0.08 µM), 0.846; in assay [2] (first compound 0.253 µM), 0.93; in assay [2] (first compound 0.8 µM), 0.824. For the same cell line, the relative viability in assay [2] (first compound 2.53 µM) stood at 0.744; in assay [2] (first compound 8 µM), 0.586.
